Assay results from patent publication US11519913B2, “Metabolic disorder target” (University of Pittsburgh—Of the Commonwealth System of …, priority 2016, dated 2022).

System: kinases
Test: Streamlined CETSA / dMS workflow with staurosporine
Type: binding
Details: staurosporine treated vs untreated samples
Excerpt: Initial experiments were designed to employ the ATP inhibitor staurosporine. Staurosporine is well documented as binding several different kinases, and so offers an a priori known binding event for study and method workup. The workflow for CETSA was streamlined. These improvements are based on two advantages: the use of factory made long heated columns for excellent chromatographic, and therefore sample to sample reproducibility, and the cloud computing platform, Chorus, which allows for the alignment and quantification of hundreds of thousands of mass spectrometric signals without the need to first identify said signals, see U.S. Pat. No. 6,906,320 “Mass Spectrometry Data Analysis Techniques,” incorporated herein by reference.
In the staurosporine analysis, the dMS workflow detected 270,822 features that were associated with 108,594 isotope groups. […] An important and distinguishing feature of the dMS workflow is that results are ranked on the basis of the quantitative data, and significant features may then be identified directly by reanalysis of the sample and acquisition of a MS2 spectrum with a retention time and m/z that matches the features of interest. This quantify first, identify second strategy greatly enhances the depth and precision of proteomic analysis compared to workflows that emphasize peptide identification rates. […]

CN[C@@H]1C[C@H]2O[C@@](C)([C@@H]1OC)n1c3ccccc3c3c4c(c5c6ccccc6n2c5c31)C(=O)NC4 [staurosporine]
Features at significance lower than p<0.0001, drug treated versus vehicle, that belong to kinases: 13 out of 16 belonged to kinases
